Source: patent US9593305B2, “Differentiation of pluripotent stem cells” (Janssen Biotech, Inc., priority 2008, dated 2017)

System: H1 human embryonic stem cells
Test: Secondary assay: compound combined with individual growth factors or small molecules, no activin A (Example 5, Table 4);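 as to Cell Number, Average Total Cell Number: Four-day assay with feeding on alternate days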;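 as to Sox17 Expression, Average Total Intensity: Four-day assay with feeding on alternate days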
Assay type: cell-based
[1] = no AA (with Wnt3a), EGF + FGF4 + PDGF-A + Muscimol
[2] = no AA (with Wnt3a), EGF + FGF4 + PDGF-A + VEGF
[3] = no AA (with Wnt3a), EGF + FGF4 + PDGF-AB
[4] = no AA (with Wnt3a), EGF + FGF4 + PDGF-AB + Muscimol
[5] = no AA (with Wnt3a), EGF + PDGF-A + VEGF
[6] = no AA (with Wnt3a), FGF4 + PDGF-A + VEGF
[7] = no AA (with Wnt3a), bicuculline

## O=C1NCCCc2cncc(c2)-c2ncnc(n2)Nc2cccc(c2)CN2CCCC1C2 (centres unmarked) [Compound 17, 3,5,7,14,20,26,31-Heptaazapentacyclo[22.3.1.1-2,6˜1˜8,12˜1˜14,18˜]hentriaconta-1(28), 2(31), 3,5,8(30), 9,11,24,26-nonaen-19-one]
No AA (with Wnt3a), EGF
  Cell Number, % of positive control: 73.43%
  Cell Number, Average Total Cell Number: 6942
  Sox17 Expression, % of positive control: 0.74%
  Sox17 Expression, Average Total Intensity: 1.27E+06
No AA (with Wnt3a), EGF + FGF4
  Cell Number, % of positive control: 60.69%
  Cell Number, Average Total Cell Number: 5738
  Sox17 Expression, % of positive control: 1.83%
  Sox17 Expression, Average Total Intensity: 3.14E+06
[1]
  Cell Number, % of positive control: 144.37%
  Cell Number, Average Total Cell Number: 13649
  Sox17 Expression, % of positive control: 8.43%
  Sox17 Expression, Average Total Intensity: 1.45E+07
[2]
  Cell Number, % of positive control: 110.85%
  Cell Number, Average Total Cell Number: 10480
  Sox17 Expression, % of positive control: 5.23%
  Sox17 Expression, Average Total Intensity: 8.97E+06
[3]
  Cell Number, % of positive control: 47.10%
  Cell Number, Average Total Cell Number: 4453
  Sox17 Expression, % of positive control: 0.54%
  Sox17 Expression, Average Total Intensity: 9.30E+05
[4]
  Cell Number, % of positive control: 109.91%
  Cell Number, Average Total Cell Number: 10391
  Sox17 Expression, % of positive control: 5.20%
  Sox17 Expression, Average Total Intensity: 8.92E+06
[5]
  Cell Number, % of positive control: 60.59%
  Cell Number, Average Total Cell Number: 5728
  Sox17 Expression, % of positive control: 1.24%
  Sox17 Expression, Average Total Intensity: 2.14E+06
[6]
  Cell Number, % of positive control: 139.59%
  Cell Number, Average Total Cell Number: 13198
  Sox17 Expression, % of positive control: 7.54%
  Sox17 Expression, Average Total Intensity: 1.29E+07

## CCN1CC(=O)NCCCc2cncc(c2)-c2ncnc(n2)Nc2cc(Cl)cc(c2)C1 [Compound 35, 10-Chloro-14-ethyl-3,5,7,14,17,23,27-heptaazatetracyclo[19.3.1.1˜2,6˜0.1˜8,12]Theptacosa-1(25), 2(27), 3,5,8(26), 9,11,21,23-nonaen-16-one]
No AA (with Wnt3a), BMP1
  Cell Number, % of positive control: 210.81%
  Cell Number, Average Total Cell Number: 18849
  Sox17 Expression, % of positive control: 6.59%
  Sox17 Expression, Average Total Intensity: 1.29E+07
No AA (with Wnt3a), BMP2
  Cell Number, % of positive control: 181.38%
  Cell Number, Average Total Cell Number: 16218
  Sox17 Expression, % of positive control: 4.55%
  Sox17 Expression, Average Total Intensity: 8.89E+06
No AA (with Wnt3a), BMP2/7
  Cell Number, % of positive control: 134.67%
  Cell Number, Average Total Cell Number: 12042
  Sox17 Expression, % of positive control: 3.62%
  Sox17 Expression, Average Total Intensity: 7.08E+06
No AA (with Wnt3a), BMP4
  Cell Number, % of positive control: 187.31%
  Cell Number, Average Total Cell Number: 16748
  Sox17 Expression, % of positive control: 4.59%
  Sox17 Expression, Average Total Intensity: 8.97E+06
No AA (with Wnt3a), BMP7
  Cell Number, % of positive control: 224.91%
  Cell Number, Average Total Cell Number: 20111
  Sox17 Expression, % of positive control: 4.12%
  Sox17 Expression, Average Total Intensity: 8.05E+06
No AA (with Wnt3a), Butyrate
  Cell Number, % of positive control: 159.24%
  Cell Number, Average Total Cell Number: 14238
  Sox17 Expression, % of positive control: −0.94%
  Sox17 Expression, Average Total Intensity: −1.85E+06
No AA (with Wnt3a), EGF
  Cell Number, % of positive control: 216.23%
  Cell Number, Average Total Cell Number: 19334
  Sox17 Expression, % of positive control: 33.86%
  Sox17 Expression, Average Total Intensity: 6.62E+07
No AA (with Wnt3a), FGF4
  Cell Number, % of positive control: 49.32%
  Cell Number, Average Total Cell Number: 4410
  Sox17 Expression, % of positive control: 17.04%
  Sox17 Expression, Average Total Intensity: 3.33E+07
No AA (with Wnt3a), LY294002
  Cell Number, % of positive control: 205.49%
  Cell Number, Average Total Cell Number: 18374
  Sox17 Expression, % of positive control: 5.28%
  Sox17 Expression, Average Total Intensity: 1.03E+07
No AA (with Wnt3a), Muscimol
  Cell Number, % of positive control: 211.00%
  Cell Number, Average Total Cell Number: 18867
  Sox17 Expression, % of positive control: 13.35%
  Sox17 Expression, Average Total Intensity: 2.61E+07
No AA (with Wnt3a), PD98059
  Cell Number, % of positive control: 211.11%
  Cell Number, Average Total Cell Number: 18877
  Sox17 Expression, % of positive control: 6.64%
  Sox17 Expression, Average Total Intensity: 1.30E+07
No AA (with Wnt3a), PDGF-A
  Cell Number, % of positive control: 188.84%
  Cell Number, Average Total Cell Number: 16885
  Sox17 Expression, % of positive control: 22.94%
  Sox17 Expression, Average Total Intensity: 4.48E+07
No AA (with Wnt3a), PDGF-AB
  Cell Number, % of positive control: 186.34%
  Cell Number, Average Total Cell Number: 16662
  Sox17 Expression, % of positive control: 25.33%
  Sox17 Expression, Average Total Intensity: 4.95E+07
No AA (with Wnt3a), PDGF-B
  Cell Number, % of positive control: 158.46%
  Cell Number, Average Total Cell Number: 14168
  Sox17 Expression, % of positive control: 7.76%
  Sox17 Expression, Average Total Intensity: 1.52E+07
No AA (with Wnt3a), PDGF-C
  Cell Number, % of positive control: 186.12%
  Cell Number, Average Total Cell Number: 16642
  Sox17 Expression, % of positive control: 9.46%
  Sox17 Expression, Average Total Intensity: 1.85E+07
No AA (with Wnt3a), PDGF-D
  Cell Number, % of positive control: 197.03%
  Cell Number, Average Total Cell Number: 17618
  Sox17 Expression, % of positive control: 9.41%
  Sox17 Expression, Average Total Intensity: 1.84E+07
No AA (with Wnt3a), U0124
  Cell Number, % of positive control: 184.97%
  Cell Number, Average Total Cell Number: 16539
  Sox17 Expression, % of positive control: 3.86%
  Sox17 Expression, Average Total Intensity: 7.54E+06
No AA (with Wnt3a), U0126
  Cell Number, % of positive control: 223.24%
  Cell Number, Average Total Cell Number: 19961
  Sox17 Expression, % of positive control: −0.29%
  Sox17 Expression, Average Total Intensity: −5.75E+05
No AA (with Wnt3a), VEGF
  Cell Number, % of positive control: 204.25%
  Cell Number, Average Total Cell Number: 18263
  Sox17 Expression, % of positive control: 17.98%
  Sox17 Expression, Average Total Intensity: 3.51E+07
[7]
  Cell Number, % of positive control: 215.98%
  Cell Number, Average Total Cell Number: 19312
  Sox17 Expression, % of positive control: 1.00%
  Sox17 Expression, Average Total Intensity: 1.95E+06
No AA (with Wut3a), BMP6
  Cell Number, % of positive control: 199.50%
  Cell Number, Average Total Cell Number: 17838
  Sox17 Expression, % of positive control: 3.75%
  Sox17 Expression, Average Total Intensity: 7.32E+06
